According to US11400112B2, “Combination therapy for treatment of leukemia” (St George's Hospital Medical School, priority 2018, dated 2022):

Assays:
[1] = test system: NB4 naïve cells; test: Viability of NB4 naïve cells (apoptosis assay, Annexin V/7AAD); type: cell-based; conditions: 48 hours
Description: (§1) In particular, the effects of Metformin, Dichloroacetate (DCA) and Artesunate (ART) in combination with arsenic trioxide were evaluated. […] Methods i) In vitro cytotoxicity assay: 10^5 cells/well were seeded in a 96 well plate and treated with increasing concentration of artesunate and arsenic trioxide and incubated for 48 hours. At the end of 48 hrs MTT was added, followed by SDS to solubilize the formazan crystals formed by the viable cells. The absorbance was measured on an ELISA plate reader SpectraMaxM4 (Molecular Devices) at a test wavelength of 570 nm and a reference wavelength of 630 nm to measure the optical density. […] An IC-50 value was generated if significant cytotoxicity was detected. […] CO2 incubator, the viability of the leukemic cells was measured using an Annexin V/7-aminoactinomycin D (7AAD) apoptosis assay kit (BD Pharmingen, San Diego, Calif., USA) as per the manufacturer's protocol. The flow cytometry data were analysed using Cell Quest pro software (BD Biosciences, San Jose, Calif., USA). iii) Measurement of Glucose Uptake: 5×10^5 cells were stained with 2-NBDG (fluorescent analogue of 2-Deoxyglucose) for 10 minutes, washed and the fluorescence measured at 485 nm/595 nm using Spectramax M4. […] The ratio of red to green fluorescence (590/530) was calculated and the Δψm of treated cells compared with the untreated cells.

[2] = test system: ATO resistant cell lines (NB4-EVAsR1, UF-1); test: Viability of ATO resistant cell lines (apoptosis assay); type: cell-based; conditions: NB4-EVAsR1 and UF-1; 48 hours
Description: as §1

[3] = test system: U937 cells; test: Viability of U937 cells (apoptosis assay, Annexin V/7AAD); type: cell-based; conditions: 48 hours
Description: The half-maximal inhibitory concentration (IC-50) values were generated using Graph Pad Prism5 software (La Jolla, Calif., USA). ii) Apoptosis Assay: Leukemic cell lines were added (2×10^5 cells/well) in 24-well plates and treated with different drugs reported to disrupt the metabolic adaptation of the leukemia cells along with appropriate controls. After 48 h of incubation at 37° C. CO2 incubator, the viability of the leukemic cells was measured using an Annexin V/7-aminoactinomycin D (7AAD) apoptosis assay kit (BD Pharmingen, San Diego, Calif., USA) as per the manufacturer's protocol. The flow cytometry data were analysed using Cell Quest pro software (BD Biosciences, San Jose, Calif., USA). iii) Measurement of Glucose Uptake: 5×10^5 cells were stained with 2-NBDG (fluorescent analogue of 2-Deoxyglucose) for 10 minutes, washed and the fluorescence measured at 485 nm/595 nm using Spectramax M4.

[4] = test system: acute promyelocytic leukemia (APL); conditions: standard of care; cited from earlier work
[5] = test system: malignant cells (NB4 naïve, NB4-EVAsR1, U937, THP-1, Kasumi, Jurkat cell lines); test: Apoptosis assay on leukemic cell lines (FIG. 5); type: cell-based; conditions: 2 μM ATO, 5 μM ART, 48 hours
Description: as §1

[6] = mouse, in vivo
Description: To further validate this in vitro observation, in vivo studies were performed on a mouse model of acute promyelocytic leukemia.

O=CC[C@@H](O)[C@H](O)[C@H](O)CO [2-DOG, 2-Deoxy-D-glucose]
viability of NB4 naïve cells [1]: sensitive
viability of the ATO resistant cell lines [2]: resistant

hemin
viability of AML cells (Annexin V-/7AAD- cells) ([3]; hemin instead of ALA, FIG. 8): did not affect

Arsenic trioxide [ATO]
outcome in the management of APL [4]: greater than 80%

C[C@H]1[C@H](OC(=O)CCC(=O)O)O[C@@H]2O[C@@]3(C)CC[C@H]4[C@H](C)CC[C@@H]1[C@@]24OO3 [ART, artesunate]
effect on the malignant cells (Annexin V-/7AAD- cells) [5]: did not have a significant effect

CN(C)C(=N)N=C(N)N [Metformin]
effect on the malignant cells (Annexin V-/7AAD- cells) [5]: did not have a significant effect

N#CC(C#N)=NNc1ccc(OC(F)(F)F)cc1 [FCCP, Carbonyl cyanide-4-(trifluoromethoxy)phenylhydrazone]
viability of the ATO resistant cell lines [2]: remained unaffected

NCC(=O)CCC(=O)O [ALA, Delta-aminolevulinic acid]
toxicity in mice [6]: significant toxicity
viability of AML cells (Annexin V-/7AAD- cells) ([3]; ATO 1 μM, ART 5 μM, ALA 1 mM, DFO 20 μM, FIG. 7): did not affect
